Measured values as given in ChEMBL document CHEMBL1146559, “Dihydrolindbladiones, three new naphthoquinone pigments from a myxomycete Lindbladia tubulina” (J Nat Prod, 2003).
Converted amounts (≈) assume the structure as drawn.

Tests used:
Assay type in all cases: functional, cell-based
P388 [1] = experiment: Cytotoxicity against vincristine-sensitive mouse P388 cells
P388 [2] = experiment: Cytotoxicity against vincristine-resistant mouse P388 cells in presence of vincristine
P388 [3] = experiment: Cytotoxicity against vincristine-resistant mouse P388 cells

Structure (SMILES) | IC50 (P388 [1]) [µg/mL] | IC50 (P388 [2]) [µg/mL] | IC50 (P388 [3]) [µg/mL]
CCCC(=O)CCC1=C(O)C(=O)c2cc(OC)c(OC)c(O)c2C1=O | > 50 | > 50 | > 50
CCCC(=O)CCC1=C(O)C(=O)c2cc(O)c(OC)c(O)c2C1=O | > 50 | 13.8 | > 50
CCCC(=O)CCC1=C(O)C(=O)c2cc(O)c(O)c(O)c2C1=O | 12.1 (≈ 37.8 µM) | 12.6 | 14 (≈ 43.7 µM)
